We go through two substances from paper PMC5824708 (EJNMMI Radiopharmacy and Chemistry, 2018).

Data set [1] concerns dipeptidyl peptidase IV (DPP4). The note with it: degradation by DPP4; ref Pauly et al. [1999]; cited from earlier work. An excerpt: The glucagon-like peptide type 1 receptor (GLP-1R) is overexpressed in virtually all benign insulinoma with high incidence and density and is considered a valuable target for the efficient visualisation by radiotracers (Reubi and Waser [2003]; Wild et al. [2011]; Wild et al. [2008]; Korner et al. [2012]). The natural ligand released from ileal L-cells, glucagon-like peptide 1 (GLP-1) stimulates the insulin secretion in β-cells by binding to the GLP-1R.

Data set [2] relates to CHL-GLP-1 tumor-bearing mouse. Further details: species or system mice. The settings on record: in vivo. The protocol:
Animal studies complied with Swiss laws on animal protection and husbandry and were approved by the Veterinary office of the Canton Zurich. After an acclimatization period, tumor xenografts were produced in 6-week old female CD1 nu/nu mice by subcutaneous injection in both shoulder regions of CHL-GLP-1 receptor positive cells (8 × 10^6 cells/mouse in PBS (100 μL, pH 7.4)) under 2%–3% isoflurane anaesthesia. Ex vivo biodistribution experiments were conducted three weeks after the inoculation. PET imaging experiments were performed five weeks after the inoculation. Two tumor bearing mice were injected with ^18F-2 (13.0 MBq in 80 and 100 μL PBS containing ≤ 5% ethanol, 1.3 and 1.9 nmol) via lateral tail vein. Anaesthesia was induced with 5% isoflurane (Abbott) in O2/air 5 min before PET/CT acquisition. Depth of anaesthesia and temperature were controlled as described by Honer et al. (Honer et al. [2004]). PET/CT scans were performed under 2–3% isoflurane anaesthesia with a GE VISTA eXplore PET/CT tomograph. […] Standardized uptake values (SUV) were calculated as a ratio of tissue radioactivity concentration (kBq/cm^3) and injected activity dose per gram body weight (kBq/g) at the scan start. Percentage injected dose per gram of tissue (%ID/g) was calculated using SUV values: SUV / body weight [g] × 100% = %ID/g.

Data set [3] concerns nude mice bearing CHL-GLP-1 receptor positive tumor xenografts. The note with it: mouse, in vivo. The protocol:
Animal studies complied with Swiss laws on animal protection and husbandry and were approved by the Veterinary office of the Canton Zurich. After an acclimatization period, tumor xenografts were produced in 6-week old female CD1 nu/nu mice by subcutaneous injection in both shoulder regions of CHL-GLP-1 receptor positive cells (8 × 10^6 cells/mouse in PBS (100 μL, pH 7.4)) under 2%–3% isoflurane anaesthesia. Ex vivo biodistribution experiments were conducted three weeks after the inoculation. PET imaging experiments were performed five weeks after the inoculation.
Tumor-bearing mice (n = 12) were injected intravenously with ^18F-2 (200 kBq in 100 μL PBS, 1.3 pmol, 5.9 ng). The animals were sacrificed at 30 min, 1 h and 2 h post injection (n = 4 for each time point). To determine specific binding an additional group of tumor-bearing mice (n = 4) received nonradioactive precursor 1 (100 μg in 100 μL PBS, 22 nmol) co-injected with ^18F-2 (266 kBq in 100 μL PBS, 1.7 pmol, 7.8 ng) and were sacrificed 1 h post injection. Organs and tissues of interest were collected and weighed, and the amount of radioactivity was determined in a γ-counter (1480 Wizard, PerkinElmer) to calculate percentage uptake (% injected dose per gram of tissue). Statistical significance was calculated using Student t-test (two populations, unpaired). P values of less than 0.05 were considered statistically significant.

As to “GLP-1: natural ligand of GLP-1R released from ileal L-cells”, in data set [1], the metabolic half-life result is listed as “less than 2 min”.

Turning to “His-Gly-Glu-Gly-Thr-Phe-Thr-Ser-Asp-Leu-Ser-Lys-Gln-Nle-Glu-Glu-Glu-Ala-Val-Arg-Leu-Phe-Ile-Glu-Trp-Leu-Lys-Asn-Gly-Gly-Pro-Ser-Ser-Pro-Ala-Pro-Pro-Pro-Ser-Lys-(N ^6 –2-(4-(di-tert-butylfluorosilyl)phenyl)acetyl)-NH 2 [^18F-2]”, the “Tumor to background ratio” value in data set [2] is recorded as ~ 3. In addition, the “tumor to blood ratio” value in data set [3] worked out at 4 ± 2.
